Source: ChEMBL document CHEMBL2390895, “Design, synthesis and structure activity relationships of spirocyclic compounds as potent CCR1 antagonists” (Bioorg Med Chem Lett, 2013)
One block for each compound: values may come before it.

What was measured:
[1] = Clearance in human hepatocytes assessed per 10^6 cells; format: ADME, cell-based, Hepatocyte; settings: read-out: CLH
[2] = Clearance in rat hepatocytes assessed per 10^6 cells; format: ADME, cell-based, Hepatocyte; settings: read-out: CLH

hepatocyte CLint [1]: < 4.6 µL/min/1e6 cells
hepatocyte CLint [2]: 33 µL/min/1e6 cells
SMILES: CNC(=O)c1ccc(O)cc1OC[C@@H](O)CN1CCC2(CC1)Cc1cc(Cl)ccc1O2

hepatocyte CLint [1]: 26 µL/min/1e6 cells
hepatocyte CLint [2]: 22 µL/min/1e6 cells
SMILES: CNC(=O)c1ccc(O)cc1OC[C@@H](O)CN1CCC2(CC1)Cc1cc(F)ccc1O2

hepatocyte CLint [1]: 10.6 µL/min/1e6 cells
hepatocyte CLint [2]: 28 µL/min/1e6 cells
SMILES: O=C(NC1CC1)c1ccc(O)cc1OC[C@@H](O)CN1CCC2(CC1)Cc1cc(Cl)ccc1O2

hepatocyte CLint [1]: 6.8 µL/min/1e6 cells
hepatocyte CLint [2]: < 4 µL/min/1e6 cells
SMILES: O=C(c1ccc(F)cc1OC[C@@H](O)CN1CCC2(CC1)Cc1cc(Cl)ccc1O2)N1CC[C@H](O)C1

hepatocyte CLint [1]: < 3 µL/min/1e6 cells
hepatocyte CLint [2]: 6.7 µL/min/1e6 cells
SMILES: O=C(c1ccc(O)cc1OC[C@@H](O)CN1CCC2(CC1)Cc1cc(Cl)ccc1O2)N1CC[C@H](O)C1

hepatocyte CLint [1]: 5.2 µL/min/1e6 cells
hepatocyte CLint [2]: 45 µL/min/1e6 cells
SMILES: O=C(NC1CC1)c1ccccc1OC[C@@H](O)CN1CCC2(CC1)Cc1cc(Cl)ccc1O2

hepatocyte CLint [1]: 15 µL/min/1e6 cells
SMILES: COc1ccc(C(=O)NC2CC2)c(OC[C@@H](O)CN2CCC3(CC2)Cc2cc(Cl)ccc2O3)c1

hepatocyte CLint [1]: 4.6 µL/min/1e6 cells
hepatocyte CLint [2]: 20 µL/min/1e6 cells
SMILES: O=C(NC1CC1)c1ccc(F)cc1OC[C@@H](O)CN1CCC2(CC1)Cc1cc(Cl)ccc1O2

Continued, compound first:

SMILES: Cc1ccc(C(=O)N2CC[C@H](O)C2)c(OC[C@@H](O)CN2CCC3(CC2)Cc2cc(F)ccc2O3)c1
hepatocyte CLint [1]: 10 µL/min/1e6 cells

SMILES: Cc1ccc(C(=O)N2CC[C@H](O)C2)c(OC[C@@H](O)CN2CCC3(CC2)Cc2cc(Cl)ccc2O3)c1
hepatocyte CLint [1]: 11 µL/min/1e6 cells

SMILES: O=C(c1cc(Cl)c(O)cc1OC[C@@H](O)CN1CCC2(CC1)Cc1cc(Cl)ccc1O2)N1CC[C@H](O)C1
hepatocyte CLint [1]: < 3 µL/min/1e6 cells
hepatocyte CLint [2]: 8.1 µL/min/1e6 cells

SMILES: O=C(c1ccc(O)cc1OC[C@@H](O)CN1CCC2(CC1)Cc1cc(Cl)ccc1O2)N1CCCC1
hepatocyte CLint [1]: 9.6 µL/min/1e6 cells
hepatocyte CLint [2]: 23 µL/min/1e6 cells

SMILES: O=C(c1ccc(O)cc1OC[C@@H](O)CN1CCC2(CC1)Cc1cc(Cl)ccc1O2)N1CCCCC1
hepatocyte CLint [1]: 14 µL/min/1e6 cells
